Laboratory results published in PMC4396868 (Birth defects research. Part A, Clinical and molecular …, 2014).

Target: bovine folate binding protein (bFBP) (Bos taurus, UniProt P02702)
Test: competitive binding ELISA, displacement of folic acid-HRP, chemiluminescence

Sequence of bovine folate binding protein (bFBP) (P02702 20-234): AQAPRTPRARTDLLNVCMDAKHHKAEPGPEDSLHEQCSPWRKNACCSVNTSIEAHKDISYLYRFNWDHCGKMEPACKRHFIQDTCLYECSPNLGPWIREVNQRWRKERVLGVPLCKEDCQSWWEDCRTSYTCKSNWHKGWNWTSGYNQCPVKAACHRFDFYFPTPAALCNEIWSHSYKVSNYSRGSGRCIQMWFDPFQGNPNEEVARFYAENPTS

IC50: 269 mM
Structure (SMILES): CCCC(CCC)C(=O)O [Valproic acid]
